According to patent publication US20080146555A1, “Uses of Kinase Inhibitors and Compositions Thereof” (GPC Biotech, Inc, priority 2004, published 2008):

System: HCT-116 cells
Experiment: Calcein AM viability assay, HCT-116
Assay type: cell-based
Settings: Homo sapiens, HCT-116, non-protein adjusted, Table 4; read-out: HCT-116 viability IC50
Experimental: The potency of the subject kinase inhibitors, as measured by loss of cellular viability, was determined with the Calcein AM assay (Molecular Probes). Calcein AM is a substrate of intracellular esterases, which is cleaved only in viable cells to generate a fluorescent product that can be quantified with a fluorescent plate reader. The fluorescent signal is proportional to the number of viable cells, and thus loss of signal in response to the exposure of cells to the subject kinase inhibitors correlates with a loss of viability. This assay not only distinguishes cell cycle arrest, in which cells may still by viable, from loss of viability, and is thus well suited for the evaluation of the subject kinase inhibitors. A compound that is a potent cytotoxic agent may cause significant loss of cell viability in such an assay.
Cellular IC50's were determined in the human colorectal carcinoma cell line, HCT-116, and the normal human fibroblast, IMR90. Protein adjusted IC50's were also determined in HCT-116. Results of such viability assays are presented in Table 2 (HCT-116 (viability/protein adjusted) and IMR-90). IC50's (μM, non-protein adjusted) for the viability assay against HCT-116 cells are shown for further compounds of the invention in Table 4.
HCT-116 or IMR90 cells were recovered from sub-confluent plates by trypsinization and 1,000 or 4,000 cells, respectively, were plated in 24-well dishes and incubated overnight at 37° C., 5% CO2. HCT-116 cells were cultured in RPMI-1640, 10% FCS, and IMR90 cells were cultured in Minimum Essential Medium-alpha, 10% FCS. After overnight incubation to allow adherence, the media was aspirated from each well and replaced with media containing a test compound at a concentration from 0 to 250 nM, spanning a total of 7 doses. The plates were returned to the incubator and cultured for an additional 72 hours (3 days). […] After 72-hours incubation with the test compound, the cells were washed twice with 1×PBS, taking special care to remove all residual buffer.
A 5 μM Calcein AM solution was prepared by dissolving a 50 μg aliquot of Calcein (Molecular Probes catalog #C3100) in 50 μl DMSO. After the Calcein had completely dissolved (10 minutes at room temperature), it was diluted into 10 ml PBS. Calcein/PBS (0.5 ml) was added to each well. The plates were incubated for 75 minutes at 37° C. (protected from light) and the fluorescent signal was read on a fluorescent plate reader (excitation 485/20 and emission 530/25).

## O=C(Nc1cccc2c1C(=O)c1c-2n[nH]c1-c1ccc(OCCN2CCOCC2)cc1)NN1CCOCC1 [Compound A3]
  IC50: < 100 nM

## Cc1cc(OCCN2CCOCC2)ccc1-c1[nH]nc2c1C(=O)c1c(NC(=O)NN3CCN(C)CC3)cccc1-2 [Compound A7]
  IC50: < 100 nM

## Cc1cc(OCCN2CCCCC2)ccc1-c1[nH]nc2c1C(=O)c1c(NC(=O)NN3CCN(C)CC3)cccc1-2 [Compound A8]
  IC50: < 100 nM

## Cc1cc(OCCN2CCCN(C)CC2)ccc1-c1[nH]nc2c1C(=O)c1c(NC(=O)NN3CCN(C)CC3)cccc1-2 [Compound A9]
  IC50: < 100 nM

## O=C(Nc1cccc2c1C(=O)c1c-2n[nH]c1-c1ccc(O)c(CN2CCOCC2)c1)NN1CCOCC1 [Compound A10]
  IC50: < 100 nM

## Cc1cc(OCCn2cccn2)ccc1-c1[nH]nc2c1C(=O)c1c(NC(=O)NN3CCN(C)CC3)cccc1-2 [Compound A11]
  IC50: < 100 nM

## CN1CCN(NC(=O)Nc2cccc3c2C(=O)c2c(-c4ccc(OCCN5CCCC5)cc4F)n[nH]c2-3)CC1 [Compound A12]
  IC50: < 100 nM

## CN1CCN(CCOc2ccc(-c3n[nH]c4c3C(=O)c3c(NC(=O)NN5CCN(C)CC5)cccc3-4)c(F)c2)CC1 [Compound A13]
  IC50: < 10 nM

## CN1CCN(NC(=O)Nc2cccc3c2C(=O)c2c(-c4ccc(OCCN5CCCC5)c(F)c4)n[nH]c2-3)CC1 [Compound A14]
  IC50: < 100 nM

## CN1CCN(NC(=O)Nc2cccc3c2C(=O)c2c-3n[nH]c2-c2ccc(O)cc2)CC1 [Compound A15]
  IC50: < 100 nM

## CC(C)N1CCN(CCOc2ccc(-c3n[nH]c4c3C(=O)c3c(NC(=O)NN5CCOCC5)cccc3-4)c(F)c2)CC1 [Compound A16]
  IC50: < 100 nM

## CN1CCN(NC(=O)Nc2cccc3c2C(=O)c2c-3n[nH]c2-c2ccc(OCCn3cccn3)cc2)CC1 [Compound A17]
  IC50: < 100 nM

## Cc1cc(-c2[nH]nc3c2C(=O)c2c(NC(=O)NN4CCN(C)CC4)cccc2-3)ccc1OCCN1CCN(C(C)C)CC1 [Compound A18]
  IC50: < 100 nM

## Cc1cc(OCCN2CCN(C(C)C)CC2)ccc1-c1[nH]nc2c1C(=O)c1c(NC(=O)NN3CCN(C)CC3)cccc1-2 [Compound A19]
  IC50: < 100 nM

## CC(C)N1CCN(CCCOc2ccc(-c3[nH]nc4c3C(=O)c3c(NC(=O)NN5CCOCC5)cccc3-4)cc2)CC1 [Compound A20]
  IC50: < 100 nM

## Cc1cc(OCCCN2CCN(C(C)C)CC2)ccc1-c1[nH]nc2c1C(=O)c1c(NC(=O)NN3CCOCC3)cccc1-2 [Compound A21]
  IC50: < 100 nM

## CC(C)N1CCN(CCOc2ccc(-c3n[nH]c4c3C(=O)c3c(NC(=O)NN5CCOCC5)cccc3-4)cc2F)CC1 [Compound A22]
  IC50: < 100 nM

## CC(C)N1CCN(NC(=O)Nc2cccc3c2C(=O)c2c-3n[nH]c2-c2ccc(OCCN3CCCC3)cc2)CC1 [Compound A23]
  IC50: < 100 nM

## Cc1cc(-c2[nH]nc3c2C(=O)c2c(NC(=O)NN4CCOCC4)cccc2-3)ccc1OCCN1CCN(C(C)C)CC1 [Compound A24]
  IC50: < 10 nM

## Cc1cc(-c2[nH]nc3c2C(=O)c2c(NC(=O)NN4CCOCC4)cccc2-3)ccc1OCCN1CCCC1 [Compound A25]
  IC50: < 10 nM

## CCOC(=O)CN1CCN(NC(=O)Nc2cccc3c2C(=O)c2c-3n[nH]c2-c2ccc(OCCN3CCCC3)cc2)CC1 [Compound A26]
  IC50: < 10 nM

## O=C(Nc1cccc2c1C(=O)c1c(-c3ccc(OCCN4CCOCC4)c(F)c3)n[nH]c1-2)NN1CCOCC1 [Compound A27]
  IC50: < 100 nM

## O=C(Nc1cccc2c1C(=O)c1c(-c3ccc(OCCN4CCOCC4)cc3Cl)n[nH]c1-2)NN1CCOCC1 [Compound A28]
  IC50: < 100 nM

## Cc1cc(OCCN2CCCC2)ccc1-c1[nH]nc2c1C(=O)c1c(NC(=O)NN3CCOCC3)cccc1-2 [Compound A29]
  IC50: < 100 nM

## COc1cc(-c2[nH]nc3c2C(=O)c2c(NC(=O)NN4CCOCC4)cccc2-3)ccc1OCCN1CCCC1 [Compound A31]
  IC50: < 100 nM

## CC(C)C(N)C(=O)OCCN1CCN(NC(=O)Nc2cccc3c2C(=O)c2c-3n[nH]c2-c2ccc(OCCN3CCCC3)cc2)CC1 (stereo not drawn) [Compound A33]
  IC50: < 100 nM

## CN(C)C(=O)COc1ccc(-c2[nH]nc3c2C(=O)c2c(NC(=O)NN4CCOCC4)cccc2-3)cc1 [Compound A34]
  IC50: < 100 nM

## Cc1noc(COc2ccc(-c3[nH]nc4c3C(=O)c3c(NC(=O)NN5CCOCC5)cccc3-4)cc2)n1 [Compound A35]
  IC50: < 100 nM

## O=C(Nc1cccc2c1C(=O)c1c-2n[nH]c1-c1ccc(OCC(=O)N2CCOCC2)cc1)NN1CCOCC1 [Compound A36]
  IC50: < 10 nM

## CC(C)OC(=O)CN1CCN(NC(=O)Nc2cccc3c2C(=O)c2c-3n[nH]c2-c2ccc(OCCN3CCCC3)cc2)CC1 [Compound A40]
  IC50: < 100 nM

## CN(C)C(=O)CN1CCN(NC(=O)Nc2cccc3c2C(=O)c2c-3n[nH]c2-c2ccc(OCCN3CCCC3)cc2)CC1 [Compound A41]
  IC50: < 100 nM

## CN1CCN(NC(=O)Nc2cccc3c2C(=O)c2c-3n[nH]c2-c2ccc(OCC(=O)N3CCCC3)cc2)CC1 [Compound A44]
  IC50: < 100 nM

## Cc1noc(COc2ccc(-c3[nH]nc4c3C(=O)c3c(NC(=O)NN5CCN(C)CC5)cccc3-4)cc2)n1 [Compound A45]
  IC50: < 10 nM

## O=C(Nc1cccc2c1C(=O)c1c-2n[nH]c1-c1ccc(OCC(=O)N2CCCC2)cc1)NN1CCOCC1 [Compound A46]
  IC50: < 100 nM

## O=C(Nc1cccc2c1C(=O)c1c(-c3ccc(CN4CCOCC4)cc3)n[nH]c1-2)NN1CCOCC1 [Compound A47]
  IC50: < 10 nM

## CN1CCN(Cc2ccc(-c3n[nH]c4c3C(=O)c3c(NC(=O)NN5CCOCC5)cccc3-4)cc2)CC1 [Compound A49]
  IC50: < 100 nM

## O=C(Nc1cccc2c1C(=O)c1c(-c3ccc(CN4CCCC4)cc3)n[nH]c1-2)NN1CCOCC1 [Compound A51]
  IC50: < 100 nM

## O=C(Nc1cccc2c1C(=O)c1c-2n[nH]c1-c1ccc(S(=O)(=O)N2CCNCC2)cc1)NN1CCOCC1 [Compound A56]
  IC50: < 100 nM

## CC(C)N1CCN(S(=O)(=O)c2ccc(-c3[nH]nc4c3C(=O)c3c(NC(=O)NN5CCOCC5)cccc3-4)cc2)CC1 [Compound A57]
  IC50: < 100 nM

## CCOC(=O)COc1ccc(-c2[nH]nc3c2C(=O)c2c(NC(=O)NN4CCOCC4)cccc2-3)cc1 [Compound A65]
  IC50: < 100 nM

## O=C(O)COc1ccc(-c2n[nH]c3c2C(=O)c2c(NC(=O)NN4CCOCC4)cccc2-3)cc1 [Compound A68]
  IC50: < 1000 nM

## O=C(Nc1cccc2c1C(=O)c1c(-c3ccc(OCc4nnn[nH]4)cc3)n[nH]c1-2)NN1CCOCC1 [Compound A74]
  IC50: > 250 nM

## CN1CCN(C(=O)COc2ccc(-c3n[nH]c4c3C(=O)c3c(NC(=O)NN5CCOCC5)cccc3-4)cc2)CC1 [Compound A77]
  IC50: < 100 nM

## CCN1CCN(C(=O)COc2ccc(-c3n[nH]c4c3C(=O)c3c(NC(=O)NN5CCOCC5)cccc3-4)cc2)CC1 [Compound A78]
  IC50: < 10 nM

## O=C(Nc1cccc2c1C(=O)c1c(-c3ccc(OCC(=O)N4CCN(Cc5ccccc5)CC4)cc3)n[nH]c1-2)NN1CCOCC1 [Compound A79]
  IC50: < 100 nM

## O=C(Nc1cccc2c1C(=O)c1c(-c3ccc(OCC(=O)N4CCN(c5ccccc5)CC4)cc3)n[nH]c1-2)NN1CCOCC1 [Compound A80]
  IC50: < 100 nM

## O=C(Nc1cccc2c1C(=O)c1c(-c3ccc(OCC(=O)N4CCN(c5ccccn5)CC4)cc3)n[nH]c1-2)NN1CCOCC1 [Compound A81]
  IC50: < 100 nM

## O=C(Nc1cccc2c1C(=O)c1c(-c3ccc(CN4CCN(c5ccccn5)CC4)cc3)n[nH]c1-2)NN1CCOCC1 [Compound A82]
  IC50: < 100 nM

## O=C(Nc1cccc2c1C(=O)c1c(-c3ccc(CNC(CO)CO)cc3)n[nH]c1-2)NN1CCOCC1 [Compound B1]
  IC50: < 1000 nM

## O=C(Nc1cccc2c1C(=O)c1c(-c3ccc(CN(CCO)CCO)cc3)n[nH]c1-2)NN1CCOCC1 [Compound B2]
  IC50: < 100 nM

## O=C(Nc1cccc2c1C(=O)c1c(-c3ccc(CN4CCN(CCO)CC4)cc3)n[nH]c1-2)NN1CCOCC1 [Compound B3]
  IC50: < 100 nM

## O=C(Nc1cccc2c1C(=O)c1c(-c3ccc(CNCCOCCO)cc3)n[nH]c1-2)NN1CCOCC1 [Compound B4]
  IC50: < 100 nM

## O=C(Nc1cccc2c1C(=O)c1c(-c3ccc(CN4CCC(O)CC4)cc3)n[nH]c1-2)NN1CCOCC1 [Compound B5]
  IC50: < 100 nM

## O=C(Nc1cccc2c1C(=O)c1c(-c3ccc(CN4CCC[C@H]4CO)cc3)n[nH]c1-2)NN1CCOCC1 [Compound B6]
  IC50: < 100 nM

## O=C(Nc1cccc2c1C(=O)c1c(-c3ccc(CN4CCN(c5cccc(C(F)(F)F)c5)CC4)cc3)n[nH]c1-2)NN1CCOCC1 [Compound B7]
  IC50: < 1000 nM

## O=C(Nc1cccc2c1C(=O)c1c(-c3ccc(CN4CC[C@@H](O)C4)cc3)n[nH]c1-2)NN1CCOCC1 [Compound B8]
  IC50: < 100 nM

## CCOC(=O)C1CCN(Cc2ccc(-c3n[nH]c4c3C(=O)c3c(NC(=O)NN5CCOCC5)cccc3-4)cc2)CC1 [Compound B9]
  IC50: < 100 nM
